In this assay the target is T1, human leukocyte elastase (Homo sapiens, UniProt P08246).
T1 sequence (P08246 30-267): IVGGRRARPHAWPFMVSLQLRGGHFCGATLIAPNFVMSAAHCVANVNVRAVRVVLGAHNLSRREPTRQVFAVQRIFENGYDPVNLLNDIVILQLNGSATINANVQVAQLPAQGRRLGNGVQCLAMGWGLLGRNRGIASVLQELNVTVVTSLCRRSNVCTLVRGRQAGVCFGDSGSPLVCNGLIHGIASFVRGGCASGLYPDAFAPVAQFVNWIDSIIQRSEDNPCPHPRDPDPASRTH
Description: in vitro human leukocyte elastase inhibiting activity (fluorogenic substrate, method of JP-A-2-101017 with slight modification). In kind it is biochemical. The conditions noted are these: 50% inhibitory concentration; substrate methoxysuccinyl-Ala-Ala-Pro-Val-7-amido-4-methylcoumarin; 0.2 M Tris-hydrochloride buffer (0.02 M CaCl2, 0.005% Triton X-100), pH 7.2; compound and enzyme incubated at 25°C for 20 minutes; read-out: IC50. How it is done: Thus, methoxysuccinyl-Ala-Ala-Pro-Val-7-amido-4-methylcoumarin was used as a substrate for human leukocyte elastase and the 50% inhibitory concentration (IC₅₀) was measured. The enzymatic reaction was carried out in 0.2 M Tris-hydrochloride buffer (containing 0.02 M CaCl₂ and 0.005% Triton X-100) at pH 7.2. Each mixture of test compound solution and the enzyme solution was incubated at 25°C for 20 minutes.

As for `CC(C)(C)C(=O)Nc1ccc(C(=O)Oc2cc(Cl)cc(OC(=O)C3CC3)c2)cc1` [Compound 57, 3-chloro-5-(cyclopropanecarbonyloxy)phenyl 4-(pivaloylamino)benzoate], the IC50 worked out at 0.0029 µM.

With `CCCCCCCC(=O)Nc1ccc(C(=O)Oc2cc(Cl)cc(Cl)c2)cc1` [Compound 6, 3,5-dichlorophenyl 4-(octanoylamino)benzoate], the IC50 worked out at 0.11 µM.

In the case of `CC(C)C(=O)Nc1ccc(C(=O)Oc2cc(Cl)cc(OS(=O)(=O)c3ccccc3)c2)cc1` [Compound 85, 3-benzenesulfonyloxy-5-chlorophenyl 4-(isobutanoylamino)benzoate], the IC50 was 0.024 µM.

`CC(C)C(=O)Nc1ccc(C(=O)Oc2cc(Cl)ccc2C#N)cc1` [Compound 62, 3-chloro-6-cyanophenyl 4-(isobutanoylamino)benzoate]: the IC50 is 0.0013 µM.

Take `CC(C)C(=O)Nc1ccc(C(=O)Oc2cc(Cl)cc(OC(=O)C3CC3)c2)cc1` [Compound 77, 3-chloro-5-(cyclopropanecarbonyloxy)phenyl 4-(isobutanoylamino)benzoate]: the IC50 was 0.0038 µM.

Take `O=C(Oc1cc(Cl)cc(Cl)c1)c1ccc(NS(=O)(=O)c2ccccc2)cc1` [Compound 25, 3,5-dichlorophenyl 4-(benzenesulfonylamino)benzoate]: the IC50 was 0.26 µM.

For the compound `CC(C)(C)C(=O)Nc1ccc(C(=O)Oc2cc(Cl)cc(Cl)c2)cc1` [Compound 8, 3,5-dichlorophenyl 4-(pivaloylamino)benzoate], the IC50 worked out at 0.0064 µM.

Turning to `CC(C)C(=O)Nc1ccc(C(=O)Oc2cc(Cl)cc(OC(=O)C(C)C)c2)cc1` [Compound 76, 3-chloro-5-isobutanoyloxyphenyl 4-(isobutanoylamino)benzoate], the IC50 was determined as 0.0019 µM.

Take `CC(C)C(=O)Nc1ccc(C(=O)Oc2cc(C=O)ccc2[N+](=O)[O-])cc1` [Compound 53, 3-formyl-6-nitrophenyl 4-(isobutanoylamino)benzoate]: the IC50 was 0.0034 µM.

As for `CCC(=O)Nc1ccc(C(=O)Oc2cc(Cl)cc(Cl)c2)cc1` [Compound 2, 3,5-dichlorophenyl 4-(propanoylamino)benzoate], the IC50 stood at 0.007 µM.

In the case of `CCCCCNC(=O)Nc1ccc(C(=O)Oc2cc(Cl)cc(Cl)c2)cc1` [Compound 30, 3,5-dichlorophenyl 4-(3-pentylureido)benzoate], the IC50 amounted to 0.19 µM.

For the compound `CCCCC(=O)Nc1ccc(C(=O)Oc2cc(Cl)cc(Cl)c2)cc1` [Compound 4, 3,5-dichlorophenyl 4-(pentanoylamino)benzoate], the IC50 worked out at 0.023 µM.

For the compound `CC(C)C(=O)Nc1ccc(C(=O)Oc2cc(F)ccc2F)cc1` [Compound 68, 2,5-difluorophenyl 4-(isobutanoylamino)benzoate], the IC50 stood at 0.11 µM.

Consider `CC(=O)Oc1cc(C#N)cc(OC(=O)c2ccc(NC(=O)C(C)C)cc2)c1` [Compound 93, 3-cyano-5-acetoxyphenyl 4-(isobutanoylamino)benzoate], for which the IC50 is 0.036 µM.

Regarding `CC(C)C(=O)Nc1ccc(C(=O)Oc2cccc(F)c2)cc1` [Compound 71, 3-fluorophenyl 4-(isobutanoylamino)benzoate], the IC50 amounted to 0.31 µM.

In the case of `CC(C)C(=O)Nc1ccc(C(=O)Oc2c(Cl)cccc2Cl)cc1` [Compound 66, 2,6-dichlorophenyl 4-(isobutanoylamino)benzoate], the IC50 is 0.094 µM.

Turning to `CC(S)C(=O)Nc1ccc(C(=O)Oc2cc(Cl)cc(Cl)c2)cc1` (stereo not shown) [Compound 39, 3,5-dichlorophenyl 4-(2-mercaptopropanoylamino)benzoate], the IC50 is 0.096 µM.

On to `CC(C)C(=O)Nc1ccc(C(=O)Oc2cc(C(F)(F)F)cc(C(F)(F)F)c2)cc1` [Compound 64], for which the IC50 is 0.22 µM.

Consider `CC(C)C(=O)Nc1ccc(C(=O)Oc2cc(F)ccc2[N+](=O)[O-])cc1` [Compound 51, 3-fluoro-6-nitrophenyl 4-(isobutanoylamino)benzoate], for which the IC50 worked out at 0.0026 µM.

`O=C(Oc1cc(Cl)cc(Cl)c1)c1ccc(NC(=O)C2CCC2)cc1` [Compound 16, 3,5-dichlorophenyl 4-(cyclobutanecarbonylamino)benzoate]: the IC50 stood at 0.0092 µM.

With `N=C(N)Nc1ccc(C(=O)Oc2cc(Cl)cc(Cl)c2)cc1` [Compound 95, reference compound], the IC50 came to 0.57 µM.

As for `CC(C)C(=O)Nc1ccc(C(=O)Oc2cc(Cl)cc(OS(=O)(=O)c3cccs3)c2)cc1` [Compound 87, 3-chloro-5-(2-thiophenesulfonyloxy)phenyl 4-(isobutanoylamino)benzoate], the IC50 is 0.019 µM.

In the case of `CC(=O)Oc1cc(Cl)cc(OC(=O)c2ccc(NC(=O)C(C)C)cc2)c1` [Compound 74, 3-acetoxy-5-chlorophenyl 4-(isobutanoylamino)benzoate], the IC50 was 0.0033 µM.

For `COC(=O)Nc1ccc(C(=O)Oc2cc(Cl)cc(Cl)c2)cc1` [Compound 33, 3,5-dichlorophenyl 4-(methoxycarbonylamino)benzoate], the IC50 came to 0.026 µM.

`CCCCCC(=O)Nc1ccc(C(=O)Oc2cc(Cl)cc(Cl)c2)cc1` [Compound 5, 3,5-dichlorophenyl 4-(hexanoylamino)benzoate]: the IC50 came to 0.037 µM.

As to `CC(C(=O)O)C(C)C(=O)Nc1ccc(C(=O)Oc2cc(Cl)cc(Cl)c2)cc1` (stereo not drawn) [Compound 42, 3,5-dichlorophenyl 4-(meso-2,3-dimethylsuccinylamino)benzoate], the IC50 came to 0.0021 µM.

On to `CC(C)C(=O)Nc1ccc(C(=O)Oc2cc(Cl)cc(OC(=O)C3(C)CC3)c2)cc1` [Compound 78, 3-chloro-5-(1-methylcyclopropanecarbonyloxy)phenyl 4-(isobutanoylamino)benzoate], for which the IC50 was found to be 0.0096 µM.

With `CC(C)(CCl)C(=O)Nc1ccc(C(=O)Oc2cc(Cl)cc(Cl)c2)cc1` [Compound 45, 3,5-dichlorophenyl 4-(3-chloro-2,2-dimethylpropanoylamino)benzoate], the IC50 was found to be 0.018 µM.

`CC(C)C(=O)Nc1ccc(C(=O)Oc2cc(Cl)cc(OS(=O)(=O)Cc3ccccc3)c2)cc1` [Compound 84, 3-chloro-5-(phenylmethanesulfonyloxy)phenyl 4-(isobutanoylamino)benzoate]: the IC50 was 0.021 µM.

Consider `CC(C)(C)C(=O)Nc1ccc(C(=O)Oc2cc(F)ccc2[N+](=O)[O-])cc1` [Compound 59, 3-fluoro-6-nitrophenyl 4-(pivaloylamino)benzoate], for which the IC50 was 0.0027 µM.

For `CC(C)C(=O)Nc1ccc(C(=O)Oc2cc(Cl)cc(OS(=O)(=O)C=Cc3ccccc3)c2)cc1` [Compound 86, 3-chloro-5-(β-styrenesulfonyloxy)phenyl 4-(isobutanoylamino)benzoate], the IC50 was 0.024 µM.

Consider `CC(C)C(=O)Nc1ccc(C(=O)Oc2cc(C(=O)O)ccc2[N+](=O)[O-])cc1` [Compound 54, 3-hydroxycarbonyl-6-nitrophenyl 4-(isobutanoylamino)benzoate], for which the IC50 turned out to be 0.0021 µM.

Turning to `CC(C)(C)C(=O)Nc1ccc(C(=O)Oc2cc(C=O)ccc2[N+](=O)[O-])cc1` [Compound 60, 3-formyl-6-nitrophenyl 4-(pivaloylamino)benzoate], the IC50 is 0.0042 µM.

With `CC(C)C(=O)Nc1ccc(C(=O)Oc2cccc([N+](=O)[O-])c2)cc1` [Compound 92, 3-nitrophenyl 4-(isobutanoylamino)benzoate], the IC50 was 0.091 µM.

What is called IC50 is the midpoint of a concentration-inhibition curve.

These data come from patent EP0475531A1, “Benzoic acid phenylester compounds and elastase inhibiting compositions containing the same” (Asahi Kasei Kogyo Kabushiki Kaisha, priority 1990, dated 1992).
